Experimental findings from patent US7232814B2 (Centre National de la Recherche Scientifique (C.N.R.S.), priority 2000, dated 2007) are described below.

What is called melting point is the temperature, or range, at which the solid turns liquid.

SMILES strings stand for the structures. Where only a bound is given, the exact number is not on record here.

As for `COc1cc2c(cc1OC)-c1[nH]c3ccc(C#N)cc3c1CC(=O)N2` [98 N 217, 2,3-Dimethoxy-6-oxo-5,6,7,12-tetrahydro-indolo [3,2-d][1]benzazepin-9-carbonitrile(9-cyano-2,3-dimethoxypaullone)], the melting point was > 330 °C.
For `O=C1Cc2c([nH]c3ccc([N+](=O)[O-])cc23)-c2cc(Br)ccc2N1` [98 N 354, 2-Bromo-7,12-dihydro-9-nitro-indolo[3,2-d][1]benzazepin-6(5H)-one(2-bromo-9-nitropaullone)] the value was > 330 °C; for `COc1cc2c(cc1OC)-c1[nH]c3ccc([N+](=O)[O-])cc3c1CC(=O)N2` [98 N 356, 2,3-Dimethoxy-7,12-dihydro-9-nitro-indolo[3,2-d][1]benzazepin-6(5H)-one(2,3-dimethoxy-9-nitropaullone)], > 330 °C.
